Laboratory results as given in patent publication US10093671B2, “2-oxo-6,7-dihydrobenzo[a]quinolizine-3-carboxylic acid derivatives for the treatment and prophylaxis of hepatitis B virus infection” (Hoffmann-La Roche Inc., priority 2015, dated 2018).
Structures can show the parent of a compound that is named as a salt.

Each compound was assayed on HBV DNA (assay: HBV DNA assay (real-time qPCR of extracellular HBV DNA copy number, HepG2.2.15 cells)). Settings: Hepatitis B virus, 144 h, six days, extracellular HBV DNA by qPCR, read-out: IC50 (Anti HBV DNA production activity).
Format: cell-based
Method: The assay employs real-time qPCR (TaqMan) to directly measure extracellular HBV DNA copy number. HepG2.2.15 cells were plated in 96-well microtiter plates. Only the interior wells were utilized to reduce “edge effects” observed during cell culture, the exterior wells were filled with complete medium to help minimize sample evaporation. On the following day, the HepG2.2.15 cells were washed and the medium was replaced with complete medium containing various concentrations of a test compound in triplicate. 3TC was used as the positive control, while media alone was added to cells as a negative control (virus control, VC). Three days later, the culture medium was replaced with fresh medium containing the appropriately diluted drug. Six days following the initial administration of the test compound, the cell culture supernatant was collected, treated with pronase and then used in a real-time qPCR/TaqMan assay to determine HBV DNA copy numbers. Antiviral activity was calculated from the reduction in HBV DNA levels (IC50).
With `COCCCOc1cc2c(cc1OC)-c1cc(=O)c(C(=O)O)cn1C(c1cc(C)cs1)C2` (centres unmarked) [Example 7, 10-methoxy-9-(3-methoxypropoxy)-6-(4-methyl-2-thienyl)-2-oxo-6,7-dihydrobenzo[a]quinolizine-3-carboxylic Acid] the IC50 was < 32 nM.
With `COc1cc2c(cc1OCC1CC1)CC(c1cccs1)n1cc(C(=O)O)c(=O)cc1-2` (centres unmarked) [Example 15, 9-(cyclopropylmethoxy)-10-methoxy-2-oxo-6-(2-thienyl)-6,7-dihydrobenzo[a]quinolizine-3-carboxylic Acid] the IC50 was < 32 nM.

What follows are compounds tested on HBsAg (assay: microbe, parasite or virus in culture). Settings: Hepatitis B virus, HepG2.2.15, read-out: IC50 (HBsAg secretion reduced by 50% compared to the no drug control).
Method: HepG2.2.15 cells (Acs et al. Proc Natl Acad Sci USA, 84, (1987), 4641-4), a constitutively HBV-expressing cell line were cultured in DMEM+Glutamax-I medium (Invitrogen, Carlsbad, Calif., USA), supplemented with 10% fetal bovine serum (Invitrogen) and G418 (Invitrogen) at a final concentration of 200 mg/L and maintained in 5% CO2 at 37° C.
HepG2.2.15 cells were seeded in duplicate into white, 96-well plates at 1.5×10^4 cells/well. The cells were treated with a three-fold serial dilution series of the compounds in DMSO. The final DMSO concentration in all wells was 1% and DMSO was used as no drug control.
The HBsAg chemiluminescence immunoassay (CLIA) kit (Autobio Diagnostics Co., Zhengzhou, China, Catalog number: CL0310-2) was used to measure the levels of secreted HBV antigens semi-quantitatively. For the detection 50 μL/well culture supernatant was used and HBsAg was quantified using HBsAg chemiluminescence immunoassay (CLIA) kit (Autobio Diagnostics Co., Zhengzhou, China, Catalog number: CL0310-2), 50 μL of the supernatant was transferred to the CLIA assay plate and 50 μL of enzyme conjugate reagent was added into each well. The plates were sealed and gently agitated for 1 hour at room temperature. The supernatant-enzyme-mixture was discarded and wells were washed 6 times with 300 μL of PBS. The residual liquid was removed by plating the CLIA plate right side down on absorbent tissue paper. 25 μL of substrates A and B were added to each well. Luminance was measured using a luminometer (Mithras LB 940 Multimode Microplate Reader) after 10 minutes incubation. Dose-response curves were generated and the IC50 value was extrapolated by using the E-WorkBook Suite (ID Business Solutions Ltd., Guildford, UK). The IC50 was defined as the compound concentration (or conditioned media log dilution) at which HBsAg secretion was reduced by 50% compared to the no drug control.
For `COCCCOc1cc2c(cc1OC)-c1cc(=O)c(C(=O)O)cn1C(c1ccc(O)cc1)C2` (centres unmarked) [Example 4, 6-(4-hydroxyphenyl)-10-methoxy-9-(3-methoxypropoxy)-2-oxo-6,7-dihydrobenzo[a]quinolizine-3-carboxylic Acid], the IC50 was 1160 nM.
For `COCCCOc1cc2c(cc1OC)-c1cc(=O)c(C(=O)O)cn1C(c1ccc(OC)cc1)C2` (centres unmarked) [Example 5, 10-methoxy-6-(4-methoxyphenyl)-9-(3-methoxypropoxy)-2-oxo-6,7-dihydrobenzo[a]quinolizine-3-carboxylic Acid], the IC50 was 800 nM.
`COCCCOc1cc2c(cc1OC)-c1cc(=O)c(C(=O)O)cn1C(c1ccc(OCc3ccccc3)cc1)C2` (centres unmarked) [Example 6, 6-(4-benzyloxyphenyl)-10-methoxy-9-(3-methoxypropoxy)-2-oxo-6,7-dihydrobenzo[a]quinolizine-3-carboxylic Acid] gave an IC50 of 1930 nM.
`COCCCOc1cc2c(cc1OC)-c1cc(=O)c(C(=O)O)cn1C(c1cc(C)cs1)C2` (centres unmarked) [Example 7, 10-methoxy-9-(3-methoxypropoxy)-6-(4-methyl-2-thienyl)-2-oxo-6,7-dihydrobenzo[a]quinolizine-3-carboxylic Acid] was tested, and the IC50 was 9 nM.
Work on `COCCCOc1cc2c(cc1OC)-c1cc(=O)c(C(=O)O)cn1C(c1ccc(F)cc1)C2` (centres unmarked) [Example 9, 6-(4-fluorophenyl)-10-methoxy-9-(3-methoxypropoxy)-2-oxo-6,7-dihydrobenzo[a]quinolizine-3-carboxylic Acid] yielded an IC50 of 83 nM.
Compound `COCCCOc1cc2c(cc1OC)-c1cc(=O)c(C(=O)O)cn1C(c1ccccc1C)C2` (centres unmarked) [Example 10, 10-methoxy-9-(3-methoxypropoxy)-6-(o-tolyl)-2-oxo-6,7-dihydrobenzo[a]quinolizine-3-carboxylic Acid] has an IC50 of 10 nM.
`COc1ccc2c(c1C)CC(c1cccs1)n1cc(C(=O)O)c(=O)cc1-2` (centres unmarked) [Example 11, 9-methoxy-8-methyl-2-oxo-6-(2-thienyl)-6,7-dihydrobenzo[a]quinolizine-3-carboxylic Acid] was tested, and the IC50 was 170 nM.
Compound `COc1cc2c(cc1OCc1ccccc1)CC(c1cccs1)n1cc(C(=O)O)c(=O)cc1-2` (centres unmarked) [Example 12, 9-benzyloxy-10-methoxy-2-oxo-6-(2-thienyl)-6,7-dihydrobenzo[a]quinolizine-3-carboxylic Acid] has an IC50 of 5 nM.
`COc1cc2c(cc1OC)-c1cc(=O)c(C(=O)O)cn1C(c1cccs1)C2` (centres unmarked) [Example 13, 9,10-dimethoxy-2-oxo-6-(2-thienyl)-6,7-dihydrobenzo[a]quinolizine-3-carboxylic Acid] showed an IC50 of 6 nM.
`COc1cc2c(cc1OCC(C)C)CC(c1cccs1)n1cc(C(=O)O)c(=O)cc1-2` (centres unmarked) [Example 14, 9-isobutoxy-10-methoxy-2-oxo-6-(2-thienyl)-6,7-dihydrobenzo[a]quinolizine-3-carboxylic Acid] gave an IC50 of 2 nM.
In the case of `COc1cc2c(cc1OCC1CC1)CC(c1cccs1)n1cc(C(=O)O)c(=O)cc1-2` (centres unmarked) [Example 15, 9-(cyclopropylmethoxy)-10-methoxy-2-oxo-6-(2-thienyl)-6,7-dihydrobenzo[a]quinolizine-3-carboxylic Acid], the IC50 is reported as 2 nM.
With `COc1cc2c(cc1OCCCn1cccn1)CC(c1cccs1)n1cc(C(=O)O)c(=O)cc1-2` (centres unmarked) [Example 16, 10-methoxy-2-oxo-9-(3-pyrazol-1-ylpropoxy)-6-(2-thienyl)-6,7-dihydrobenzo[a]quinolizine-3-carboxylic Acid] the IC50 was 9 nM.
`COc1cc2c(cc1OCCCO)CC(c1cccs1)n1cc(C(=O)O)c(=O)cc1-2` (centres unmarked) [Example 17, 9-(3-hydroxypropoxy)-10-methoxy-2-oxo-6-(2-thienyl)-6,7-dihydrobenzo[a]quinolizine-3-carboxylic Acid] gave an IC50 of 18 nM.
`COc1cc2c(cc1OCCCN1CCCCC1)CC(c1cccs1)n1cc(C(=O)O)c(=O)cc1-2` (centres unmarked) [Example 18, 10-methoxy-2-oxo-9-[3-(1-piperidyl)propoxy]-6-(2-thienyl)-6,7-dihydrobenzo[a]quinolizine-3-carboxylic Acid Formate] gave an IC50 of 97 nM.
In the case of `COc1cc2c(cc1OCCCC#N)CC(c1cccs1)n1cc(C(=O)O)c(=O)cc1-2` (centres unmarked) [Example 19, 9-(3-cyanopropoxy)-10-methoxy-2-oxo-6-(2-thienyl)-6,7-dihydrobenzo[a]quinolizine-3-carboxylic Acid], the IC50 is reported as 5 nM.
`COc1cc2c(cc1OCCN1CCCC1=O)CC(c1cccs1)n1cc(C(=O)O)c(=O)cc1-2` (centres unmarked) [Example 20, 10-methoxy-2-oxo-9-[2-(2-oxopyrrolidin-1-yl)ethoxy]-6-(2-thienyl)-6,7-dihydrobenzo[a]quinolizine-3-carboxylic Acid] was tested, and the IC50 was 37 nM.
`COc1cc2c(cc1OCCCCCCNC(=O)OC(C)(C)C)CC(c1cccs1)n1cc(C(=O)O)c(=O)cc1-2` (centres unmarked) [Example 21, 9-[6-(tert-butoxycarbonylamino)hexoxy]-10-methoxy-2-oxo-6-(2-thienyl)-6,7-dihydrobenzo[a]quinolizine-3-carboxylic Acid] gave an IC50 of 6 nM.
In the case of `COc1cc2c(cc1OCCCCCCN)CC(c1cccs1)n1cc(C(=O)O)c(=O)cc1-2` (centres unmarked) [Example 22, 9-(6-aminohexoxy)-10-methoxy-2-oxo-6-(2-thienyl)-6,7-dihydrobenzo[a]quinolizine-3-carboxylic Acid Formate], the IC50 is reported as 21 nM.
`COc1cc2c(cc1OCCCCCCNC(C)=O)CC(c1cccs1)n1cc(C(=O)O)c(=O)cc1-2` (centres unmarked) [Example 23, 9-(6-acetamidohexoxy)-10-methoxy-2-oxo-6-(2-thienyl)-6,7-dihydrobenzo[a]quinolizine-3-carboxylic Acid] was tested, and the IC50 was 18 nM.
`COc1cc2c(cc1OCCCCCCNS(C)(=O)=O)CC(c1cccs1)n1cc(C(=O)O)c(=O)cc1-2` (centres unmarked) [Example 24, 9-[6-(methanesulfonamido)hexoxy]-10-methoxy-2-oxo-6-(2-thienyl)-6,7-dihydrobenzo[a]quinolizine-3-carboxylic Acid] was tested, and the IC50 was 10 nM.
`COc1cc2c(cc1OCCCCCCO)CC(c1cccs1)n1cc(C(=O)O)c(=O)cc1-2` (centres unmarked) [Example 25, 9-(6-hydroxyhexoxy)-10-methoxy-2-oxo-6-(2-thienyl)-6,7-dihydrobenzo[a]quinolizine-3-carboxylic Acid] gave an IC50 of 3 nM.
In the case of `COc1cc2c(cc1OCC(C)(C)CO)CC(c1cccs1)n1cc(C(=O)O)c(=O)cc1-2` (centres unmarked) [Example 26, 9-(3-hydroxy-2,2-dimethyl-propoxy)-10-methoxy-2-oxo-6-(2-thienyl)-6,7-dihydrobenzo[a]quinolizine-3-carboxylic Acid], the IC50 is reported as 4 nM.
Work on `COc1cc2c(cc1OCC(F)(F)F)CC(c1cccs1)n1cc(C(=O)O)c(=O)cc1-2` (centres unmarked) [Example 27, 10-methoxy-2-oxo-6-(2-thienyl)-9-(2,2,2-trifluoroethoxy)-6,7-dihydrobenzo[a]quinolizine-3-carboxylic Acid] yielded an IC50 of 3 nM.
`COc1cc2c(cc1OCCCN1CCOCC1)CC(c1cccs1)n1cc(C(=O)O)c(=O)cc1-2` (centres unmarked) [Example 28, 10-methoxy-9-(3-morpholinopropoxy)-2-oxo-6-(2-thienyl)-6,7-dihydrobenzo[a]quinolizine-3-carboxylate] showed an IC50 of 10 nM.
`COc1cc2c(cc1OCCCn1cncn1)CC(c1cccs1)n1cc(C(=O)O)c(=O)cc1-2` (centres unmarked) [Example 29, 10-methoxy-2-oxo-6-(2-thienyl)-9-[3-(1,2,4-triazol-1-yl)propoxy]-6,7-dihydrobenzo[a]quinolizine-3-carboxylic Acid] showed an IC50 of 64 nM.
`COc1cc2c(cc1OCCCC(=O)O)CC(c1cccs1)n1cc(C(=O)O)c(=O)cc1-2` (centres unmarked) [Example 30, 9-(3-carboxypropoxy)-10-methoxy-2-oxo-6-(2-thienyl)-6,7-dihydrobenzo[a]quinolizine-3-carboxylic Acid] gave an IC50 of 320 nM.
`COc1cc2c(cc1OCCCSC)CC(c1cccs1)n1cc(C(=O)O)c(=O)cc1-2` (centres unmarked) [Example 31, 10-methoxy-9-(3-methylsulfanylpropoxy)-2-oxo-6-(2-thienyl)-6,7-dihydrobenzo[a]quinolizine-3-carboxylic Acid] gave an IC50 of 4 nM.
Work on `COc1cc2c(cc1OCCCS(C)(=O)=O)CC(c1cccs1)n1cc(C(=O)O)c(=O)cc1-2` (centres unmarked) [Example 32, 10-methoxy-9-(3-methylsulfonylpropoxy)-2-oxo-6-(2-thienyl)-6,7-dihydrobenzo[a]quinolizine-3-carboxylic Acid] yielded an IC50 of 110 nM.
With `COc1cc2c(cc1C)CC(c1cccs1)n1cc(C(=O)O)c(=O)cc1-2` (centres unmarked) [Example 33, 10-methoxy-9-methyl-2-oxo-6-(2-thienyl)-6,7-dihydrobenzo[a]quinolizine-3-carboxylic Acid] the IC50 was 35 nM.
Work on `CCc1cc2c(cc1OC)-c1cc(=O)c(C(=O)O)cn1C(c1cccs1)C2` (centres unmarked) [Example 34, 9-ethyl-10-methoxy-2-oxo-6-(2-thienyl)-6,7-dihydrobenzo[a]quinolizine-3-carboxylic Acid] yielded an IC50 of 24 nM.
Compound `CCCc1cc2c(cc1OC)-c1cc(=O)c(C(=O)O)cn1C(c1cccs1)C2` (centres unmarked) [Example 35, 10-methoxy-2-oxo-9-propyl-6-(2-thienyl)-6,7-dihydrobenzo[a]quinolizine-3-carboxylic Acid] has an IC50 of 22 nM.
Work on `COc1cc2c(cc1N1CCCC1)CC(c1cccs1)n1cc(C(=O)O)c(=O)cc1-2` (centres unmarked) [Example 36, 10-methoxy-2-oxo-9-pyrrolidin-1-yl-6-(2-thienyl)-6,7-dihydrobenzo[a]quinolizine-3-carboxylic Acid] yielded an IC50 of 3 nM.
Work on `COCCCOc1cc2c(cc1Cl)-c1cc(=O)c(C(=O)O)cn1C(c1cc3ccccc3s1)C2` (centres unmarked) [Example 37, 6-(benzothiophen-2-yl)-10-chloro-9-(3-methoxypropoxy)-2-oxo-6,7-dihydrobenzo[a]quinolizine-3-carboxylic Acid] yielded an IC50 of 4420 nM.
